Laboratory results taken from patent US20250041284A1, “TREATMENT OF NEUROLOGICAL DISORDERS” (Praxis Precision Medicines, Inc., priority 2022, published 2025).
Entries after “also recorded” stand apart in the source; their conditions may differ.

Tests used:
Format in all cases: in vivo, mouse
[1] = tested on: MES-induced tonic hindlimb extension in male CD-1 mice; assay: MES acute seizure model, protection from tonic hindlimb extension (Example 9)
Procedure: Male CD-1 mice (Vital River, Beijing, China) approximately 6 weeks old were obtained for the study. Body weights were between 20.5 grams and 38.5 grams at the time the experiments were carried out. […] Food and water were available ad libitum.
(§1) Treatment was conducted using Compound 1 and 35% 2-hydroxypropyl-β-cyclodextrin (35% HPBCD, used as a negative control). Compound 1 stock solution was prepared fresh each experiment day in 35% HPBCD and protected from light. The stock solution was diluted with vehicle for lower doses.
Mice were brought to the test room at least one hour before the start of the experiment. Mice were administered valproate (VPA; 400 mg/kg, intraperitoneally); or vehicle (35% HPBCD, 10 mL/kg, intraperitoneally); or Compound 1 (0.3 mg/kg, 1 mg/kg, 3 mg/kg or 10 mg/kg, orally) 30 minutes prior to the MES test.
The electroshock apparatus was set to deliver a 50 mA square-wave stimulus, with a 0.8 second duration, a pulse width of 10 milliseconds, and a frequency of 50 Hz. A pair of custom stainless-steel electrodes were soaked in 0.2% agar, and then the subject received bilateral transauricular stimulation through ear-clip electrodes. During the stimulation, mice were manually restrained then released immediately into an observation cage where they were monitored continuously for 60 seconds by an observer blinded to treatment group.
Mice were anesthetized with CO2 and terminal plasma and brain tissue samples were collected. […] The supernatant plasma was pipetted into Eppendorf tubes.
All statistical analyses were conducted using GraphPad Prism 9.3. Means were combined and standard error was calculated using the Satterthwaite Approximation to combine standard deviations. […] ED50 and EC50 values were calculated from these fit curves.

[2] = Spontaneous locomotor activity (sLMA) (Example 8); conditions: male, CD-1, mouse, in vivo, po, 30 min before test, distance travelled
Procedure: (§2) Male CD-1 mice (Vital River, Beijing, China) approximately 6 weeks old were used for the study. Body weights were between 25 g and 35 g at the time of experiment.
as §1
(§3) The spontaneous locomotor activity (sLMA) test for each study was carried out over three days, with mice from each treatment group tested each day. The treatment groups included mice dosed with vehicle (35% HPBCD) and with Compound 1 at the dose of 3 mg/kg, 5.6 mg/kg, 10 mg/kg and 20 mg/kg. Mice were randomly assigned into one of the treatment groups.
(§4) A single dose of Compound 1 (3 mg/kg, 5.6 mg/kg, 10 mg/kg and 20 mg/kg) or vehicle (35% HPBCD) was administered to mice via oral gavage 30 minutes prior to testing. Immediately prior to conducting the sLMA test, a brief neurological assessment was performed. Each animal was visually assessed for sedation and ataxia.
(§5) Activity was recorded by overhead cameras and was analyzed offline. Video tracking analysis software was used to determine total distance travelled in millimeters. Distance travelled was also calculated in 5-minute bins.
(§6) All statistical analyses were conducted using GraphPad Prism 9.3. Means were combined and standard error was calculated using the Satterthwaite Approximation to combined standard deviations. […] TD50 and TC50 values were calculated from these fit curves.

[3] = tested on: locomotor activity of male CD-1 mice; assay: Spontaneous locomotor activity (sLMA) (Example 8)
Procedure: as §2, §1, §3, §4, §5, §6

[4] = tested on: scPTZ-induced seizures in wildtype CD-1 mice; assay: Subcutaneous pentylenetetrazole (scPTZ) induced seizure; conditions: 1-10 mg/kg orally
Procedure: Male CD-1 mice (Charles River Laboratories, St. Constant, Quebec, Canada) were used for the study. Body weights at the time the experiment was carried out were between 27 and 39 grams. The mice were group-housed in polycarbonate cages according to standard operating procedures. Animals were maintained on a 12 hour light/12 hour dark cycle, with all experimental activities occurring during the light phase. Food and water were available ad libitum. Mice acclimated to the test facility for at least 72 hours prior to testing.
Treatment was conducted using Compound 1 and 35% 2-hydroxypropyl-β-cyclodextrin (35% HPBCD, used as a negative control). Compound 1 stock solution was prepared fresh each experiment day in 35% HPBCD. […]
Immediately prior to the administration of PTZ, a brief neurological assessment was performed. Each animal was visually assessed and received a score from 0 to 3 according to the following scoring system: neurological score of 0 corresponds to a normal status; neurological score of 1 corresponds to a modest decrease in spontaneous activity; neurological score of 2 corresponds to a marked decrease in spontaneous activity; and neurological score of 3 corresponds to loss of righting reflex.
PTZ (85 mg/kg, 10 ml/kg) was administered as a subcutaneous (s.c.) injection. […] The latency to generalized clonic seizure was recorded. Seizures were also scored using a seizure scale. […]

CCOC(F)(F)c1nnc2ccc(-c3cnc(OCC(F)(F)F)c(F)c3)cn12 [Compound 1]
sedation or ataxia before MES test ([1]; 10 mg/kg orally): some mice showed sedation or ataxia; also recorded: six of thirty mice showed mild to moderate sedation
sedation or ataxia before MES test ([1]; 0.3 to 3 mg/kg orally): No sedation or ataxia was observed; also recorded: No sedation was observed
ED50 ([1]; Mus musculus, administered dose): 0.42 mg/kg
TD50 [2]: 10.4 mg/kg
sedation or ataxia ([3]; 3 mg/kg and 5.6 mg/kg p.o.): No sedation or ataxia was observed
mice with sedation and/or ataxia ([3]; 10 mg/kg p.o.): five
mice with sedation and/or ataxia ([3]; 20 mg/kg p.o.): eight
sLMA brain TC50 ([3]; brain concentration): 1914 ng/g
sLMA plasma TC50 ([3]; plasma concentration): 1.256 µg/mL
neurological scores before PTZ [4]: Neurological scores for all but one mouse treated with Compound 1 were normal
protection from PTZ-induced generalized clonus ([4]; PTZ 85 mg/kg s.c.): mice were protected from generalized clonus
